Patent US9458100B2, “Synthesis and growth regulatory activity of a prototype member of a new family of aminothiol radioprotectors” (Wisconsin Alumni Research Foundation, priority 2012, dated 2016)
Like-named read-outs stand apart in the source and are kept apart here. Marks after values point to notes of the source that are not given here.

How the values were obtained:
mouse [1] = assay: Systemic toxicity, maximum tolerated dose in mouse; assay type: in vivo; conditions: for Mouse IP MTD: intraperitoneal
Procedure: (§1) During the development of embodiments of the technology provided herein, embodiments of compounds described herein and/or encompassed by the synthetic schemes were tested for systemic toxicity and radioprotection in mouse and rat models (Table 2). Toxic doses are shown as the “maximum tolerated dose” (“MTD”) for intraperitoneal (IP), oral, and subcutaneous (SC) administration routes in Table 2.
(§2) Doses expressed as a fraction of “MTD” are expressed as a fraction of the “maximum tolerated dose”. Doses expressed in units of ug/g correspond to micrograms of the compound per gram of body weight.

mouse [2] = conditions: intraperitoneal; published value; cited from earlier work
[3] = system: mice exposed to whole-body radiation; assay: Mouse survival after whole-body radiation (systemic radioprotection); assay type: in vivo; conditions: for Mouse % Survival: 8.63 Gy whole-body radiation
Procedure: Exposure of a control mouse to the same dose of radiation in the absence of PrC-210 administration (e.g., a water-only control) is 100% lethal (FIG. 4, “IP Water”). Each treatment group contained 20 mice. The dose of PrC-210 was 252 μg/g body weight.
In additional experiments, female ICR mice received 200 μl doses (e.g., 900 μg/g body weight) of PrC-210 dissolved in water by gavage at the indicated times prior to irradiation (See FIG. 6). At 0 min, mice were irradiated with 9.0 Gy of whole-body radiation in a CS^137 irradiator. Mice were returned to housing and their weights and survival were monitored for the next 60 days. There were six mice in each of the treatment groups.
[…] Survival rates greater than the 0% Survival seen in the vehicle control group were attributed to systemic radioprotection conferred by the systemically administered radioprotector molecule.

ferret = assay: Ferret retch/emesis model; assay type: in vivo
[4] = system: rats exposed to whole-body radiation; assay: Rat survival after whole-body radiation (oral radioprotection); assay type: in vivo
Procedure: Female Sprague-Dawley rats received 200 μl doses of PrC-210 dissolved in water by gavage a time of 60 minutes prior to irradiation (time=−60 min). […] Rats were returned to housing and their weights and survival were monitored for the next 60 days. There were six rats in each of the treatment groups. As shown by FIG. 5, oral PrC-210 confers 100% protection against an otherwise 100% lethal dose of whole-body radiation.

[5] = system: radiation dermatitis in rat skin; assay: Rat radiation dermatitis assay with topical application before irradiation; assay type: in vivo; conditions: topical in ethanol/water vehicle four times in the 2 h before 17.33 Gy; scored 13 days later
Procedure: To determine if PrC-210 could function as a topical radioprotector that could prevent radiation dermatitis when applied prior to a cancer patient's daily radiotherapy, a rat assay that realistically mimics human radiation dermatitis was created. This assay quantifies the severity of radiation dermatitis in rat skin 13 days after a single radiation dose of 17.33 Gy. In this study, PrC-210 was applied to rat skin in an ethanol/water delivery vehicle four times in the 2 h before irradiation, and control rats received only topical vehicle before irradiation (FIG. 2). Additional drug/irradiation groups of three rats each received either the alkyl-thiol moiety or the alkyldiamine moiety from PrC-210 in the same delivery vehicle. Following the 17.33 Gy irradiation of a […] patch of dorsal skin on the rats' backs, rats were scored 13 days later.
Molecules were applied to skin in an alcohol/water delivery vehicle prior to receiving a 17.33 Gy radiation dose to the 1.5 cm×3.0 cm skin site. Radiation dermatitis severity (e.g., % of the site covered by scab material) was scored 13 days following irradiation.

rat [6] = assay: Systemic toxicity, maximum tolerated dose in rat; assay type: in vivo
Procedure: as §1, §2

rat [7] = assay: Rat aortic blood pressure monitoring (hypotension side effect); assay type: in vivo; conditions: anesthetized rats, intraperitoneal injection
Procedure: Blood pressure was monitored in the aortic artery of rats using a high-fidelity pressure transducer. Rats were continually anesthetized with 2% isofluorane, and drug doses were administered by intraperitoneal injection. Rats received intraperitoneal saline injections until these injections induced no change in monitored blood pressure. Indicated doses of PrC-210 or amifostine (FIG. 8) were administered and changes in blood pressure and heart rate were recorded. A condensed summary of drug-induced changes for all cannulated rats is shown in panel C. Doses of epinephrine (Epi; hypertensive) were also recurrently admininesterod to test if previous PrC-210 or amifostine doses could be modified.

[8] = Biodistribution of intravenous bolus of 14C PrC-210 in rat; assay type: in vivo
Procedure: During the development of embodiments of the technology provided herein, experiments were conducted to test the biodistribution of an intravenous bolus dose of radiolabeled (e.g., ^14C) PrC-210 in a rat host. In these experiments, an intravenous bolus of 100 μCi of ^14C PrC-210 was administered into an indwelling catheter in a 300 g rat.

Compound: NCCCNCCSP(=O)(O)O [Amifostine, amifostine, reference compound]
- Mouse IP MTD (mouse [1]): 760^d μg/g b.w.
- Mouse IP MTD (mouse [2]): 800^c μg/g b.w.
- Mouse % Survival ([3]; at IP 0.5 MTD: 400 ug/g): 88%
- retch/emesis responses (ferret; in vivo): caused retch/emesis responses in each of the four ferrets tested

Compound: CN(C)C(=O)C(CCN1CCC(O)(c2ccc(Cl)cc2)CC1)(c1ccccc1)c1ccccc1 [Loperamide]
- retch/emesis responses (ferret; ferret equivalent of highest human dose, loperamide as positive control 14 days later): robust retch/emesis response in each of the 14 ferrets

Compound: CNCC(CNC)CSSCC(CNC)CNC [PrC-210 Disulfide]
- Mouse IP MTD (mouse [1]): 155 μg/g b.w.
- Mouse % Survival ([3]; at IP 0.5 MTD: 78 ug/g): <5%
- Mouse % Survival ([3]; at IP 0.9 MTD: 140 ug/g): 37%

Compound: CNCC(CS)CNC [PrC-210, 3-(methyl-amino)-2-((methylamino)methyl)propane-1-thiol]
- Mouse IP MTD (mouse [1]; determined using best fit analysis of survival data): 422^b μg/g b.w.
- Mouse IP MTD (mouse [1]; determined using probit analysis of survival data): 504^a μg/g b.w.
- Mouse ORAL MTD (mouse [1]; oral): 1780 μg/g b.w.
- Mouse SC MTD (mouse [1]; subcutaneous): 431 μg/g b.w.
- Rat % Survival ([4]; at ORAL 0.5 MTD: 900 ug/g, 9.5 Gy whole-body radiation): 100% (at ORAL 0.5 MTD: 900 ug/g)
- protection against otherwise 100% lethal whole-body radiation ([4]; female Sprague-Dawley rats, oral gavage 60 minutes prior, monitored 60 days): 100%
- prevention of radiation dermatitis [5]: completely prevent radiation dermatitis
- Rat IP MTD (rat [6]; intraperitoneal): 485 μg/g b.w.
- Rat ORAL MTD (rat [6]; oral): 1974 μg/g b.w.
- hypotension side effects (rat [7]): does not cause hypotension side effects
- Mouse % Survival ([3]; at IP 0.5 MTD: 211 ug/g): 98%
- Mouse % Survival ([3]; at IP 0.5 MTD: 252 ug/g): 100%
- Mouse % Survival ([3]; at ORAL 0.87 MTD: 1550 ug/g (only dose tested)): 100%
- protection against otherwise 100% lethal whole-body radiation ([3]; female ICR mice, oral 900 μg/g body weight, 60 minutes before 9.0 Gy): 100%
- survival ([3]; mouse, IP 252 μg/g body weight, 30 minutes before 8.75 Gy whole-body radiation): 100%
- retch/emesis responses (ferret; in vivo): zero retching or emesis responses
- Recovery (carcass) ([8]; 100 uCi IV): 6.89%
- Cmax ([8]; 100 uCi IV 14C PrC-210): 21,400 ng-eq/g
- Tmax ([8]; 100 uCi IV 14C PrC-210): 30 min
- Recovery2 (systemic) ([8]; 100 uCi IV, excreta + carcass): 81.23%
- Recovery3 (total) ([8]; 100 uCi IV, systemic + skin + cage wash + cage wipe + enclosure): 84.20%
- Recovery1 (excreta) ([8]; 100 uCi IV, urine + urine wipes + feces): 74.34%
- administered radioactivity eliminated via feces ([8]; intravenous 14C PrC-210): approximately 10%
- administered radioactivity eliminated via urine ([8]; intravenous 14C PrC-210): approximately 50%

Compound: NCC(CN)CS [PrC-211]
- Mouse IP MTD (mouse [1]): 475 μg/g b.w.
- Mouse % Survival ([3]; at IP 0.25 MTD: 118 ug/g): 37%
- Mouse % Survival ([3]; at IP 0.5 MTD: 238 ug/g): 47%
- Mouse % Survival ([3]; at IP 0.9 MTD: 427 ug/g): 100%
